Measurements reported in ChEMBL document CHEMBL1147376, “Isolation and structure elucidation of 34-sulfatobastadin 13, an inhibitor of the endothelin A receptor, from a marine sponge of the genus Ianthella” (J Nat Prod, 1993).
≈ marks a conversion by molar mass, not a printed value. Calls of active or inactive are those of the source. The calls are words filed in the database; no cut-off is given here.

How the values were obtained:
Bacillus subtilis [1] = assay: Antibacterial activity against Bacillus subtilis ATCC 6633 at 50 ug/mL after 18 to 24 hrs by twofold dilution test; format: functional, organism-based
Endothelin-1 receptor = target: T1, Endothelin-1 receptor (Sus scrofa, UniProt Q29010); assay: Displacement of [125]ET1 from ETA receptor in pig thoracic aorta
T1 sequence (Q29010 whole entry): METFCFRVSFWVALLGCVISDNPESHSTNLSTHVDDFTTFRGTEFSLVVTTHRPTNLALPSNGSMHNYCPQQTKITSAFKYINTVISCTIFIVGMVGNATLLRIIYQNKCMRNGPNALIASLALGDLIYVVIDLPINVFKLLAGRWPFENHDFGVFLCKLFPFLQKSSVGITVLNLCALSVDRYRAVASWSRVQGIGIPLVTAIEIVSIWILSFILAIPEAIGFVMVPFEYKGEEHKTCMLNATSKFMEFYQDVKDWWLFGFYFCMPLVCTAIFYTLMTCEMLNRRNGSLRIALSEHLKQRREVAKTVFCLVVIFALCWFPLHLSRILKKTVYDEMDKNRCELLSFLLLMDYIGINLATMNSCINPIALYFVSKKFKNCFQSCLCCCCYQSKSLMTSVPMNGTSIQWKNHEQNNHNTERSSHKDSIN

[2] = target: T2, Endothelin receptor type B (Rattus norvegicus) (UniProt P21451); assay: Displacement of [125]ET3 from ETB receptor in Sprague-Dawley rat cerebellum at 70 uM
T2 sequence (whole entry): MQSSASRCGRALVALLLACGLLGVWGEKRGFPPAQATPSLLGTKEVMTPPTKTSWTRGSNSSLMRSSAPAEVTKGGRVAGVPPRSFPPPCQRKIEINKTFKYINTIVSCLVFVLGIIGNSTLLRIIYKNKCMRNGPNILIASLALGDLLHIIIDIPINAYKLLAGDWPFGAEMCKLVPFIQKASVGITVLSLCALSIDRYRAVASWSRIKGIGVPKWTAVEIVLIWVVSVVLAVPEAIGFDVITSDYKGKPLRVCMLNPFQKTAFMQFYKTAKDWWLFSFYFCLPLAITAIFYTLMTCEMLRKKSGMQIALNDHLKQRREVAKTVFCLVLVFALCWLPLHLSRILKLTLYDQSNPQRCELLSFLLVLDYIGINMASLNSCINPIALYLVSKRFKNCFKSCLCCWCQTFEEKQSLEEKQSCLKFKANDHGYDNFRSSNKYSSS

Bacillus subtilis [3] = assay: Antibacterial activity against Bacillus subtilis ATCC 6633 after 18 to 24 hrs by twofold dilution test; format: functional
[4] = target: T3, Endothelin-1 receptor (Sus scrofa) (UniProt Q29010); assay: Displacement of [125]ET1 from ETA receptor in pig thoracic aorta at 70 uM; format: tissue-based
T3 sequence (whole entry): T1 sequence (Q29010 whole entry)

Structure (SMILES) | Activity (Bacillus subtilis [1]) | IC50 (Endothelin-1 receptor) [µM] | inhibition [2] [%] | MIC (Bacillus subtilis [3]) [µg/mL] | inhibition [4] [%]
O=C1NCCc2ccc(c(Br)c2)Oc2cc(ccc2O)CCNC(=O)/C(=N/O)Cc2cc(Br)c(OS(=O)(=O)O)c(c2)Oc2c(Br)cc(cc2Br)C/C1=N\O | inactive | 39 | 27 |  | 
O=C1NCCc2ccc(c(Br)c2)Oc2cc(ccc2O)CCNC(=O)/C(=N/O)Cc2cc(Br)c(O)c(c2)Oc2c(Br)cc(cc2Br)C/C1=N\O [BASTADIN 13] |  |  | 30 | 6 (≈ 6.38 µM) | 32
